Source: patent US20210009613A1, “ARYLPHOSPHINE OXIDES FOR INHIBITING KINASE ACTIVITY” (Shenzhen TargetRx, Inc., priority 2017, published 2021)

What was measured:
I1171N/T/S = details: Crizotinib-resistant mutation; cited from earlier work
G1202R = G1202R (Homo sapiens, UniProt Q9UM73, G1202R); details: Crizotinib-resistant mutation; cited from earlier work
F1174C/V = details: Crizotinib-resistant mutation; cited from earlier work
ALK [WT] = ALK [WT] (Homo sapiens, UniProt Q9UM73); assay: Kinase inhibition assay, ALK [WT]; type: biochemical
Procedure: (§1) Compound preparation: The test compounds were dissolved in DMSO to make 20 mM stock solutions. The compounds were diluted in DMSO to 0.1 mM (a dilution with 100 times the final concentration) before use, and a 3-fold series gradient dilution with 11 concentrations was made. Dilutions with 4 times of the final concentration were prepared by diluting with buffer when dosing.
(§2) Kinase assay: after preparing the buffer solution, the enzyme was mixed with pre-diluted compounds with different concentrations, and placed at room temperature for 30 minutes in duplicate. The corresponding substrate and ATP were added thereto and reacted at room temperature for 60 minutes (both a negative and a positive control were set). After the reaction, antibody was added for detection, and after incubation at room temperature for 60 minutes, Evnvision detection was carried out, and data was collected. Data was analyzed and fit according to XLfit5 software. IC50 was calculated by the following formula: (IC50=[(ABS test-ABS begin)/(ABS control-ABS begin)]×100).

ALK [L1196M] = ALK [L1196M] (Homo sapiens, UniProt Q9UM73, L1196M); assay: Kinase inhibition assay, ALK [L1196M]; type: biochemical
Procedure: as §1, §2

Ba/F3 parental = assay: Cytotoxicity test (CellTiter-Glo), Ba/F3 parental; type: cell-based; details: Mus musculus, BaF3, 72 hours
Procedure: (§3) The in vitro anti-proliferative activity of the compounds of the present disclosure against three types of cells that are cultured in vitro was tested by CellTiter-Glo method.
(§4) Cell lines: Ba/F3 parental; Ba/F3 [EML4-ALK] (From WuXi PharmaTech) and Ba/F3 [EML4-ALK L1196M] (From WuXi PharmaTech); wherein, Ba/F3 parental was cultured in RPMI1640 medium containing 10 ng/ml IL-3, […], 100 U/ml penicillin, and 100 μg/ml streptomycin, Ba/F3 [EML4-ALK] and Ba/F3 [EML4-ALK L1196M] were cultured in RPMI1640 medium containing 10% fetal bovine serum, 100 U/ml penicillin, and 100 μg/ml streptomycin.
(§5) Reagents and materials: RPMI-1640 (GIBCO, Cat. No. A10491-01); fetal bovine serum (GIBCO, Cat. No. 10099141); 0.25% trypsin-EDTA (GIBCO, Cat. No. 25200); penicillin-streptomycin, liquid (GIBCO, Cat. No. 15140-122); DMSO (Sigma, Cat. No. D2650); CellTiter-Glo Test Kit (Promega, Cat. No. G7572), and 96-well plate (Corning, Cat. No. 3365).
(§6) Specific experimental procedures: • 1. The test compounds were dissolved in DMSO to make stock solutions and subjected to a series gradient dilution to give solutions with 10-fold working concentration. • 2. The cells in the logarithmic growth phase were diluted with the culture solution to adjust to the specific cell concentration, 90 μl of cell suspension was added to the 96-well plate to make the cell density reach the specified concentration. The plate was incubated in a incubator at 37° C., containing 5% carbon dioxide gas overnight. • 3. 10 μl drug solutions were added to each well of the 96-well plate inoculated with cells. 10 concentrations of the compounds were tested starting from the highest concentration of 20 μM with a 3-fold series gradient dilution in duplicate. • 4. After continuously cultured for 72 hours, the cells were detected by CellTiter-Glo for the cell viability. The dose-effect curve was made using GraphPad Prism software and IC50 was calculated.

Ba/F3 [EML4-ALK L1196M] [1] = assay: Cytotoxicity test (CellTiter-Glo), Ba/F3 [EML4-ALK L1196M]; type: cell-based; details: ratio of Ba/F3 IC50 values
Procedure: as §3, §4, §5, §6

Ba/F3 [EML4-ALK L1196M] [2] = molecular target: T1, Ba/F3 [EML4-ALK L1196M] (Homo sapiens, UniProt Q9UM73, L1196M, cells depend on it); assay: as above; type: cell-based; details: 72 hours, CellTiter-Glo; read-out: IC50(nM) ALK[L1196M] (Ba/F3)
T1 construct: IC50(nM) ALK[L1196M]; (Ba/F3); other: 72 hours, CellTiter-Glo; Ba/F3 [EML4-ALK L1196M]; fused on or other part: Q9HC35 (Echinoderm microtubule-associated protein-like 4)
Procedure: as §3, §4, §5, §6

Ba/F3 [EML4-ALK] [3] = molecular target: T2, Ba/F3 [EML4-ALK] (Homo sapiens, UniProt Q9UM73); assay: Cytotoxicity test (CellTiter-Glo), Ba/F3 [EML4-ALK]; type: cell-based; details: 72 hours, CellTiter-Glo; read-out: IC50(nM) ALK (Ba/F3)
T2 construct: IC50(nM) ALK (Ba/F3); other: 72 hours, CellTiter-Glo; Ba/F3 [EML4-ALK]; fused on or other part: Q9HC35 (Echinoderm microtubule-associated protein-like 4)
Procedure: as §3, §4, §5, §6

Ba/F3 [EML4-ALK] [4] = assay: as above; type: cell-based; details: ratio of Ba/F3 IC50 values
Procedure: as §3, §4, §5, §6

ALK [WT], sequence (Q9UM73 19-1620): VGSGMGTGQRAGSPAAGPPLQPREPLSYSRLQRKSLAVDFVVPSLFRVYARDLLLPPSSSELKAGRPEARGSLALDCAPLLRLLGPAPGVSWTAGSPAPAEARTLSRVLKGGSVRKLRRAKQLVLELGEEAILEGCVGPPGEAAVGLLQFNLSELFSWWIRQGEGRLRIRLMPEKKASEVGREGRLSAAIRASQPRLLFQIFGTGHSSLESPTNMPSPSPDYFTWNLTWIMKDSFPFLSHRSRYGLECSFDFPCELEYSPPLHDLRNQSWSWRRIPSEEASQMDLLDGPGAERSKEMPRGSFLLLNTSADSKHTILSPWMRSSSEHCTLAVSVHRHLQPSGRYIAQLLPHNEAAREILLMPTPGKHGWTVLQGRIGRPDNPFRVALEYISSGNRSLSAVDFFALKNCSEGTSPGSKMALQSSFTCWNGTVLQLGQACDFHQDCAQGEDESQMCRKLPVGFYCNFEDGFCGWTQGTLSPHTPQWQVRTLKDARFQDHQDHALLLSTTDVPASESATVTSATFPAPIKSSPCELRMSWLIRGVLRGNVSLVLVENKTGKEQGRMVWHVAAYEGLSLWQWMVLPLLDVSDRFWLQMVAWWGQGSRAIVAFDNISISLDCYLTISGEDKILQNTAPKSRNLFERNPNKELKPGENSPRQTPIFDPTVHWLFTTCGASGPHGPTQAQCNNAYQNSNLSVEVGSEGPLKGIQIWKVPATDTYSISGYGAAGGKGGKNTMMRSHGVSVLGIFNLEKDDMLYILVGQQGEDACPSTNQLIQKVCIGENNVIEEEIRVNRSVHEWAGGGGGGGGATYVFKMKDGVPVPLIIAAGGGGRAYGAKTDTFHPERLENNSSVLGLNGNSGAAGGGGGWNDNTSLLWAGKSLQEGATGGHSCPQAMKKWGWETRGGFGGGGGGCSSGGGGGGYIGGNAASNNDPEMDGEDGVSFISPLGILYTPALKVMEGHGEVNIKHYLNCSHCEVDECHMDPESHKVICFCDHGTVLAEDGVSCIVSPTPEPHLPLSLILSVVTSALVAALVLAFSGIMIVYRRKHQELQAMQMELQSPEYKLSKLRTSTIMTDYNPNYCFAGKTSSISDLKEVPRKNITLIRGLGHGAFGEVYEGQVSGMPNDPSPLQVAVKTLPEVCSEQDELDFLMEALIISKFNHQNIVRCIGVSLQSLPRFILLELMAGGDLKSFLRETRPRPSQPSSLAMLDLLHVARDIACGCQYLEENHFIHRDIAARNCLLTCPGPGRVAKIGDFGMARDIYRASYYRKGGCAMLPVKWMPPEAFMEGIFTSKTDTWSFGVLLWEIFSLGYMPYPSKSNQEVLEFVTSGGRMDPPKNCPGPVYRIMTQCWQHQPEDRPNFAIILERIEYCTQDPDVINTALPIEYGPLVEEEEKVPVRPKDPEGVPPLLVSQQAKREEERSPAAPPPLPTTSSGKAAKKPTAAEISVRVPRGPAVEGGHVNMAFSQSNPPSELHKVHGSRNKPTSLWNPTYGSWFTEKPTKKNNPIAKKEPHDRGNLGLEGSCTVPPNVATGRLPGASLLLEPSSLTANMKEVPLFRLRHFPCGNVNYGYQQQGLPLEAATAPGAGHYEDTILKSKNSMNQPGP
T1 sequence (Q9UM73 whole entry L1196M, the tested form may be a part): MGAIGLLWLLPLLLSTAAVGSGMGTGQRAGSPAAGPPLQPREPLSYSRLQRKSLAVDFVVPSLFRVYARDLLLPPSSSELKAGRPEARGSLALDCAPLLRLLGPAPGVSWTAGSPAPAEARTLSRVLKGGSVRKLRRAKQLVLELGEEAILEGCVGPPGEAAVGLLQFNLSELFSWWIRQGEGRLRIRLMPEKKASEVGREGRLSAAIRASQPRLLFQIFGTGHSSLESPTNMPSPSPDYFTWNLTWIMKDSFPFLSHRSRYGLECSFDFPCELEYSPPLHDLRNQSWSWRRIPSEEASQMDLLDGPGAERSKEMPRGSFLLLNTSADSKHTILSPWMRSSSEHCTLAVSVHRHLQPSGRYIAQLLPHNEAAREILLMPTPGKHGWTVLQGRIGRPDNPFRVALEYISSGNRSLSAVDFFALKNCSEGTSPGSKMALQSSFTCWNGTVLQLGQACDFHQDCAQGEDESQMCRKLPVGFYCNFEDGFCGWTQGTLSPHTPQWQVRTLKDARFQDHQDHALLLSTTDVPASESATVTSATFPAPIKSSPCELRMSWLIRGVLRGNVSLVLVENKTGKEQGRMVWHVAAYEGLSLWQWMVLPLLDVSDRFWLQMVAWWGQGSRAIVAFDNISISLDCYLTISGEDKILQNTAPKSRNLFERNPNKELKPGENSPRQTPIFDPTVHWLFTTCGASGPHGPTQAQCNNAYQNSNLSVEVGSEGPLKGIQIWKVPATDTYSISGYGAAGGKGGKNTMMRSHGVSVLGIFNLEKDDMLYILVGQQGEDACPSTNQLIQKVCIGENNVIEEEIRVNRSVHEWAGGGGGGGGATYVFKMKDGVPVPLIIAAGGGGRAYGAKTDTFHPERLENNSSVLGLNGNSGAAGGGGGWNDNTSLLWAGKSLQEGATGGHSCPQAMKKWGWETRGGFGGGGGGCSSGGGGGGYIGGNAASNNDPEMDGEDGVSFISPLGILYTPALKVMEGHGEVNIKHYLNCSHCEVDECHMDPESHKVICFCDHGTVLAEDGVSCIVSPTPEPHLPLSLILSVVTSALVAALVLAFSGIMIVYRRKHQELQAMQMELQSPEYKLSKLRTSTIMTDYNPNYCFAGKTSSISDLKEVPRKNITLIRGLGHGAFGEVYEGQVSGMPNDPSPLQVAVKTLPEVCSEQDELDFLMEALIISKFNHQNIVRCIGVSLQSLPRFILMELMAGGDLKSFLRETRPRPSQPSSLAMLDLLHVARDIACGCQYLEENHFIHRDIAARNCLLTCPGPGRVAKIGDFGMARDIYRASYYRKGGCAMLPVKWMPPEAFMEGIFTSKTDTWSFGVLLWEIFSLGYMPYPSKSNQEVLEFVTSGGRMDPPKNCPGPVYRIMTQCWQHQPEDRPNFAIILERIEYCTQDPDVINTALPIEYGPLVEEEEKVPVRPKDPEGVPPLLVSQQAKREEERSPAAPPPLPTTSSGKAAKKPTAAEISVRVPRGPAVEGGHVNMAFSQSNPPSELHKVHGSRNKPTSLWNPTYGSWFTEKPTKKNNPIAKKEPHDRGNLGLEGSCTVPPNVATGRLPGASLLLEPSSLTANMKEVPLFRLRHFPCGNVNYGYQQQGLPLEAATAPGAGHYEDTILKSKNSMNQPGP
T2 sequence (Q9UM73 whole entry, change not shown, the tested form may be a part): as the sequence (Q9UM73 whole entry L1196M, the tested form may be a part) above, with M1196L counted along it
ALK [L1196M], sequence (Q9UM73 19-1620 L1196M): as the sequence (Q9UM73 19-1620) above, with L1178M counted along it
G1202R, sequence (Q9UM73 19-1620 G1202R): as the sequence (Q9UM73 19-1620) above, with G1184R counted along it

Structure (SMILES)	effect on I1171N/T/S (I1171N/T/S)	effect on G1202R (G1202R)	effect on F1174C/V (F1174C/V)	IC50 (ALK [WT]) [nM]	IC50 (ALK [L1196M]) [nM]	IC50 (Ba/F3 parental) [nM]	Selectivity parental/ALK[L1196M] (Ba/F3 [EML4-ALK L1196M] [1])	GI50 (Ba/F3 [EML4-ALK L1196M] [2]) [nM]	GI50 (Ba/F3 [EML4-ALK] [3]) [nM]	Selectivity parental/ALK (Ba/F3 [EML4-ALK] [4])
CCc1cc2c(cc1N1CCC(N3CCOCC3)CC1)C(C)(C)c1[nH]c3cc(C#N)ccc3c1C2=O [Alectinib]	no effect	–	–	–	–	–	–	–	–	–
Cc1cc(Nc2ncc(Cl)c(Nc3ccccc3S(=O)(=O)C(C)C)n2)c(OC(C)C)cc1C1CCNCC1 [Ceritinib]	–	neither of them has effect	no effect	–	–	–	–	–	–	–
COc1nc(N2CCN(C)CC2)ccc1Nc1nc(Nc2ccccc2P(C)(C)=O)c2cc[nH]c2n1 [Example 14, (2-((2-((2-methoxy-6-(4-methylpiperazin-1-yl)pyridin-3-yl)amino)-7H-pyrrolo[2,3-d]pyrimidin-4-yl)amino)phenyl)dimethylphosphine oxide]	–	–	–	≤ 5	≤ 5	400 to 1000	0~50	≤ 50	≤ 50	50~100
COc1nc(N(C)CCN(C)C)ccc1Nc1nc(Nc2ccccc2P(C)(C)=O)c2cc[nH]c2n1 [Example 15]	–	–	–	5 to 10	≤ 5	≥ 1000	0~50	50 to 100	≤ 50	50~100
COc1nc(N2CCC(N3CCN(C)CC3)CC2)ccc1Nc1nc(Nc2ccccc2P(C)(C)=O)c2cc[nH]c2n1 [Example 16, (2-((2-((2-methoxy-6-(4-(4-methylpiperazin-1-yl)piperidin-1-yl)pyridin-3-yl)amino)-7H-pyrrolo[2,3-d]pyrimidin-4-yl)amino)phenyl)dimethylphosphine oxide]	–	–	–	≤ 5	5 to 10	400 to 1000	0~50	50 to 100	≤ 50	50~100
CP(C)(=O)c1ccccc1Nc1nc(Nc2ccc(CCN)nc2OCC(F)(F)F)ncc1Cl [Example 17, (2-((2-((6-(2-aminoethyl)-2-(2,2,2-trifluoroethoxy)pyridin-3-yl)amino)-5-chloropyrimidin-4-yl)amino)phenyl)dimethylphosphine oxide]	–	–	–	10 to 50	50 to 100	≥ 1000	0~50	400 to 1000	100 to 400	50~100
CNCCc1ccc(Nc2ncc(Cl)c(Nc3ccccc3P(C)(C)=O)n2)c(OCC(F)(F)F)n1 [Example 18, (2-((5-chloro-2-((6-(2-(methylamino)ethyl)-2-(2,2,2-trifluoroethoxy)pyridin-3-yl)amino)pyrimidin-4-yl)amino)phenyl)dimethylphosphine oxide]	–	–	–	10 to 50	50 to 100	≥ 1000	0~50	100 to 400	100 to 400	50~100
CN(C)CCc1ccc(Nc2ncc(Cl)c(Nc3ccccc3P(C)(C)=O)n2)c(OCC(F)(F)F)n1 [Example 19, (2-((5-chloro-2-((6-(2-(dimethylamino)ethyl)-2-(2,2,2-trifluoroethoxy)pyridin-3-yl)amino)pyrimidin-4-yl)amino)phenyl)dimethylphosphine oxide]	–	–	–	10 to 50	50 to 100	≥ 1000	50~100	100 to 400	50 to 100	100~200
